Drawing on US8999957B2, “Heterocyclic compounds as ERK inhibitors” (Merck Sharp & Dohme Corp., priority 2010, dated 2015), this text covers IC50 for 26 compounds.

In this experiment the target is fully phosphorylated, mouse aERK2 enzyme (Mus musculus (Mouse), UniProt P63085). Briefly: Active ERK2 (aERK) IMAP-FP assay, condition 2. The class given is biochemical. An outline of the steps: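 Phosphorylation by fully phosphorylated mouse ERK2 ran 40-45 min, then quenched with IMAP beads (1:1000) in binding buffer; fluorescence polarization read after 30 min binding equilibration.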

The mark [1] stands for this setting: active ERK2, read-out: aErk2 Ic50.
Where [2] appears, read: aERK assay condition 2, 30 uM ATP, read-out: aERK IC50.

Where two headings read alike, the source gives them in different places.

Sequence of fully phosphorylated, mouse aERK2 enzyme (P63085 whole entry): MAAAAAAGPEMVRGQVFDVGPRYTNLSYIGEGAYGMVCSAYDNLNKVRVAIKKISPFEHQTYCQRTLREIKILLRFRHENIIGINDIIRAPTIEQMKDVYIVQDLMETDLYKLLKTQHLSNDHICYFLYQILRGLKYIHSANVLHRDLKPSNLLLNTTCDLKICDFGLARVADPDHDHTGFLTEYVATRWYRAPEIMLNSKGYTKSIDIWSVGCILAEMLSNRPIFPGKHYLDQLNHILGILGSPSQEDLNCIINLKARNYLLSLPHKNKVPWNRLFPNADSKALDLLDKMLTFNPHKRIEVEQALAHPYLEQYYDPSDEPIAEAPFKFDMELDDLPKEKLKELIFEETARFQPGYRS

For the compound `Cc1cc(-c2n[nH]c3ccc(C(=O)N[C@@H]4CC[C@@H](C(=O)N5CC(F)(F)C5)N(Cc5c(F)cccc5F)C4)cc23)ccn1` [N-[(3R,6S)-6-[(3,3-difluoroazetidin-1-yl)carbonyl]-1-(2,6-difluorobenzyl)piperidin-3-yl]-3-(2-methylpyridin-4-yl)-1H-indazole-5-carboxamide], under setting [1], the IC50 (as a rule, the concentration needed to halve the response being measured) was found to be 96.5 nM.
On the same count and under the same terms, the same measure for `COc1cccc(F)c1CN1C[C@H](NC(=O)c2ccc3[nH]nc(-c4ccnc(C)c4)c3c2)CC[C@H]1C(=O)N1CCN(C(=O)OC2CCCC2)CC1` [cyclopentyl 4-{[(2S,5R)-1-(2-fluoro-6-methoxybenzyl)-5-({[3-(2-methylpyridin-4-yl)-1H-indazol-5-yl]carbonyl}amino)piperidin-2-yl]carbonyl}piperazine-1-carboxylate]: 31 nM; for `COc1cccc(F)c1CN1C[C@H](NC(=O)c2ccc3[nH]nc(-c4ccnc(C)c4)c3c2)CC[C@H]1C(=O)N1CCN(C(=O)OC2(C)CC2)CC1` [1-methylcyclopropyl 4-{[(2S,5R)-1-(2-fluoro-6-methoxybenzyl)-5-({[3-(2-methylpyridin-4-yl)-1H-indazol-5-yl]carbonyl}amino)piperidin-2-yl]carbonyl}piperazine-1-carboxylate]: 22.1 nM; for `CCCN(CCC)C(=O)[C@@H]1CC[C@@H](NC(=O)c2ccc3[nH]nc(-c4ccnc(C)c4)c3c2)CN1Cc1c(F)cccc1OC` [N-[(3R,6S)-6-(dipropylcarbamoyl)-1-(2-fluoro-6-methoxybenzyl)piperidin-3-yl]-3-(2-methylpyridin-4-yl)-1H-indazole-5-carboxamide]: 141 nM.
For `CNC(=O)C(c1c(F)cccc1F)N1CCC[C@@H](NC(=O)c2ccc3[nH]nc(-c4ccncc4)c3c2)C1` (single isomer, unassigned) [drawing 506, N-((R)-1-((S or R)-1-(2,6-difluorophenyl)-2-(methylamino)-2-oxoethyl)piperidin-3-yl)-3-(pyridin-4-yl)-1H-indazole-5-carboxamide], the IC50 under setting [2] was 20.8 nM.
In the case of `COc1cccc(F)c1CN1C[C@H](NC(=O)c2ccc3[nH]nc(-c4ccc5nc(C)sc5c4)c3c2)CC[C@H]1C(N)=O` [N-[(3R,6S)-6-carbamoyl-1-(2-fluoro-6-methoxybenzyl)piperidin-3-yl]-3-(2-methyl-1,3-benzothiazaol-6-yl)-1H-indazole-5-carboxamide], under setting [1], the IC50 was 3.6 nM.
`COc1cccc(F)c1CN1C[C@H](NC(=O)c2ccc3[nH]nc(-c4ccnc(C)c4)c3c2)CC[C@H]1C(=O)N(C)C` [N-[(3R,6S)-6-(dimethylcarbamoyl)-1-(2-fluoro-6-methoxybenzyl)piperidin-3-yl]-3-(2-methylpyridin-4-yl)-1H-indazole-5-carboxamide]: under setting [1], the 50% inhibitory concentration (IC50) stood at 37.8 nM.
Take `COc1cccc(F)c1CN1C[C@H](NC(=O)c2ccc3[nH]nc(-c4ccnnc4)c3c2)CC[C@H]1C(=O)N1CC(F)(F)C1` [N-[(3R,6S)-6-[(3,3-difluoroazetidin-1-yl)carbonyl]-1-(2-fluoro-6-methoxybenzyl)-piperidin-3-yl]-3-pyridazin-4-yl-1H-indazole-5-carboxamide]: the IC50 under setting [1] was determined as 61.2 nM.
On to `CCN(CC)C(=O)[C@@H]1CC[C@@H](NC(=O)c2ccc3[nH]nc(-c4ccnc(C)c4)c3c2)CN1Cc1c(F)cccc1OC` [N-[(3R,6S)-6-(diethylcarbamoyl)-1-(2-fluoro-6-methoxybenzyl)piperidin-3-yl]-3-(2-methylpyridin-4-yl)-1H-indazole-5-carboxamide], for which, under setting [1], the IC50 stood at 16.2 nM.
On the same count and under the same terms, the same measure for `COc1cccc(F)c1CN1C[C@H](NC(=O)c2ccc3[nH]nc(-c4ccnc(C)c4)c3c2)CC[C@H]1C(=O)N(C)OC` [N-{(3R,6S)-1-(2-fluoro-6-methoxybenzyl)-6-[methoxy(methyl)carbamoyl]piperidin-3-yl}-3-(2-methylpyridin-4-yl)-1H-indazole-5-carboxamide]: 11.2 nM.
For the compound `CNC(=O)C(c1ccccc1F)N1CCC[C@@H](NC(=O)c2ccc3[nH]nc(-c4ccncc4)c3c2)C1` (single isomer, unassigned) [drawing 501, N-((R)-1-((R or S)-1-(2-fluorophenyl)-2-(methyl-amino)-2-oxoethyl)piperidin-3-yl)-3-(pyridin-4-yl)-1H-indazole-5-carboxamide], under setting [2], the 50% inhibitory concentration (IC50) was determined as 175 nM.
Regarding `CN(C)C(=O)C(c1c(F)cccc1F)N1CCC[C@@H](NC(=O)c2ccc3[nH]nc(-c4ccncc4)c3c2)C1` (single isomer, unassigned) [drawing 507, N-((R)-1-((R or S)-1-(2,6-difluorophenyl)-2-(dimethyl-amino)-2-oxoethyl)piperidin-3-yl)-3-(pyridin-4-yl)-1H-indazole-5-carboxamide], the IC50 under setting [2] is 416 nM.
As to `COc1cccc(F)c1CN1CCC[C@@H](NC(=O)c2ccc3[nH]nc(C4CCOCC4)c3c2)C1` [N-[(3R)-1-(2-fluoro-6-methoxybenzyl)piperidin-3-yl]-3-(tetrahydro-2H-pyran-4-yl)-1H-indazole-5-carboxamide], the IC50 under setting [2] is 195 nM.
For the compound `COc1ccc(NC(=O)[C@@H]2CC[C@@H](NC(=O)c3ccc4[nH]nc(-c5ccnc(C)c5)c4c3)CN2Cc2c(F)cccc2OC)cc1` [N-{(3R,6S)-1-(2-fluoro-6-methoxybenzyl)-6-[(4-methoxyphenyl)carbamoyl]piperidin-3-yl}-3-(2-methylpyridin-4-yl)-1H-indazole-5-carboxamide], the IC50 under setting [2] was determined as 11.6 nM.
On to `COc1cccc(F)c1CN1C[C@H](NC(=O)c2ccc3[nH]nc(-c4ccnc(C)c4)c3c2)CC[C@H]1C(=O)Nc1ccc(C)nc1` [N-{(3R,6S)-1-(2-fluoro-6-methoxybenzyl)-6-[(6-methylpyridin-3-yl)carbamoyl]piperidin-3-yl}-3-(2-methylpyridin-4-yl)-1H-indazole-5-carboxamide], for which, under setting [2], the IC50 is 6.7 nM.
Turning to `COc1cccc(F)c1CN1C[C@H](NC(=O)c2ccc3[nH]nc(-c4ccnc(C)c4)c3c2)CC[C@H]1C(=O)NCCNC(=O)OC(C)(C)C` [tert-butyl [2-({[(2S,5R)-1-(2-fluoro-6-methoxybenzyl)-5-({[3-(2-methylpyridin-4-yl)-1H-indazol-5-yl]carbonyl}amino)piperidin-2-yl]carbonyl}amino)ethyl]carbamate], under setting [1], the IC50 was determined as 18.9 nM.
Consider `CN(C)C(=O)C(c1ccccc1F)N1CCC[C@@H](NC(=O)c2ccc3[nH]nc(-c4ccncc4)c3c2)C1` (single isomer, unassigned) [N-((R)-1-((R or S)-2-(dimethylamino)-1-(2-fluorophenyl)-2-oxoethyl)piperidin-3-yl)-3-(pyridin-4-yl)-1H-indazole-5-carboxamide], for which the half-maximal inhibitory concentration (IC50) under setting [2] turned out to be 26.4 nM.
Same read-out and setting: the same measure for `COc1cccc(F)c1CN1C[C@H](NC(=O)c2ccc3[nH]nc(-c4ccnc(C)c4)c3c2)CC[C@H]1C(=O)NC1(C)CC1` [N-{(3R,6S)-1-(2-fluoro-6-methoxybenzyl)-6-[(1-methylcyclopropyl)carbamoyl]piperidin-3-yl}-3-(2-methylpyridin-4-yl)-1H-indazole-5-carboxamide]: 4.7 nM.
As for `COC(=O)N1CCN(C(=O)[C@@H]2CC[C@@H](NC(=O)c3ccc4[nH]nc(-c5ccnc(C)c5)c4c3)CN2Cc2c(F)cccc2OC)CC1` [methyl 4-{[(2S,5R)-1-(2-fluoro-6-methoxy-benzyl)-5-({[3-(2-methylpyridin-4-yl)-1H-indazol-5-yl]carbonyl}amino)piperidin-2-yl]carbonyl}piperazine-1-carboxylate], the IC50 under setting [1] was found to be 17.9 nM.
Take `CCN(C)C(=O)[C@@H]1CC[C@@H](NC(=O)c2ccc3[nH]nc(-c4ccnc(C)c4)c3c2)CN1Cc1c(F)cccc1OC` [N-[(3R,6S)-6-[ethyl(methyl)carbamoyl]-1-(2-fluoro-6-methoxybenzyl)piperidin-3-yl]-3-(2-methylpyridin-4-yl)-1H-indazole-5-carboxamide]: the half-maximal inhibitory concentration (IC50) under setting [1] was determined as 21.8 nM.
On the same count and under the same terms, the same measure for `Cc1cc(-c2n[nH]c3ccc(C(=O)N[C@@H]4CC[C@@H](C(=O)N(C)C)N(CCc5ccccc5)C4)cc23)ccn1` [N-[(3R,6S)-6-(dimethylcarbamoyl)-1-(2-phenylethyl)piperidin-3-yl]-3-(2-methylpyridin-4-yl)-1H-indazole-5-carboxamide]: 131 nM.
Regarding `NC(=O)C(c1c(F)cccc1F)N1CCC[C@@H](NC(=O)c2ccc3[nH]nc(-c4ccncc4)c3c2)C1` (single isomer, unassigned) [drawing 504, N-((R)-1-((S or R)-2-amino-1-(2,6-difluorophenyl)-2-oxoethyl)piperidin-3-yl)-3-(pyridin-4-yl)-1H-indazole-5-carboxamide], under setting [2], the IC50 was found to be 35.3 nM.
With `COc1cccc(F)c1CN1C[C@H](NC(=O)c2ccc3[nH]nc(-c4ccncc4)c3c2)CC[C@H]1C(=O)N1CCCCC1` [N-[(3R,6S)-1-(2-fluoro-6-methoxybenzyl)-6-(piperidin-1-ylcarbonyl)piperidin-3-yl]-3-pyridin-4-yl-1H-indazole-5-carboxamide], the IC50 under setting [1] was found to be 59.9 nM.
On to `CCOC(=O)N1CCN(C(=O)[C@@H]2CC[C@@H](NC(=O)c3ccc4[nH]nc(-c5ccnc(C)c5)c4c3)CN2Cc2c(F)cccc2OC)CC1` [ethyl 4-{[(2S,5R)-1-(2-fluoro-6-methoxy-benzyl)-5-({[3-(2-methylpyridin-4-yl)-1H-indazol-5-yl]carbonyl}amino)piperidin-2-yl]carbonyl}piperazine-1-carboxylate], for which the IC50 under setting [1] worked out at 20.5 nM.
Take `CCN(CC)C(=O)[C@@H]1CC[C@@H](NC(=O)c2ccc3[nH]nc(-c4ccc5nc(C)sc5c4)c3c2)CN1Cc1c(F)cccc1OC` [N-[(3R,6S)-6-(diethylcarbamoyl)-1-(2-fluoro-6-methoxybenzyl)piperidin-3-yl]-3-(2-methyl-1,3-benzothiazol-6-yl)-1H-indazole-5-carboxamide]: under setting [1], the IC50 was found to be 32.9 nM.
With `COc1cccc(F)c1CN1C[C@H](NC(=O)c2ccc3[nH]nc(-c4ccnc(C)c4)c3c2)CC[C@H]1C(=O)N1CCC1` [N-[(3R,6S)-6-(azetidin-1-ylcarbonyl)-1-(2-fluoro-6-methoxybenzyl)piperidin-3-yl]-3-(2-methylpyridin-4-yl)-1H-indazole-5-carboxamide], the IC50 under setting [1] was 34.9 nM.
